Source: patent publication US12528761B2, “Thyromimetics” (Autobahn Therapeutics, Inc., priority 2020, dated 2026)

What was measured:
TRα = target: T1, TRα (Homo sapiens, UniProt P10827); test: TR reporter-gene assay (Gal4 DBD hybrid, luciferase), TRα; assay type: cell-based; details: HEK293-derived reporter cells, 24 hr treatment; read-out: TRα EC50
T1 construct: expressed in transfected cells; host or cells: HEK293
T1 sequence (P10827 1-410 isoform P10827-2): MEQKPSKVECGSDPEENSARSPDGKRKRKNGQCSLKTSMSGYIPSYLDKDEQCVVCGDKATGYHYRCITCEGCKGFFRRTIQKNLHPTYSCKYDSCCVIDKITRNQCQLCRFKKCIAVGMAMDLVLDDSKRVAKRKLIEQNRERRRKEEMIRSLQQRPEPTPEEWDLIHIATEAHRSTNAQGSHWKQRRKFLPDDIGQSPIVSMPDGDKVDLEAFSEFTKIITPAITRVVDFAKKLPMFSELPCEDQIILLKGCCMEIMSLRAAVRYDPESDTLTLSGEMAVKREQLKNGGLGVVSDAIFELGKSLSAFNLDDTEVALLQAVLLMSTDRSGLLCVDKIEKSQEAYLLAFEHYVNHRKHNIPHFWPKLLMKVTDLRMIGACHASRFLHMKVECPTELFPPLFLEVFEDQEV
Method: (§1) Compounds were tested for thyroid-hormone receptor activity using TR reporter-gene assays. Reporter cells used in the assays express a TR-receptor hybrid (either TRα or TRβ) in which the native N-terminal DNA binding domain (DBD) has been replaced with that of the yeast Gal4 DBD. The reporter gene, firefly luciferase, is functionally linked to the Gal4 upstream activation sequence (UAS). Both cell lines were derived from human embryonic kidney (HEK293).
(§2) Step 1: A suspension of reporter cells was prepared in cell recovery medium containing 10% charcoal-stripped FBS, and dispensed into assay plates. The plates were pre-incubated for 6 hours in a cell culture incubator (37° C./5% CO2/85% humidity).
(§3) These intermediate stocks were subsequently diluted directly into compound screening medium containing 10% charcoal-stripped FBS to generate “2×-concentration” treatment media (containing 0.2, 0.4 or 0.8% DMSO).
(§4) Step 3: At the end of the pre-incubation period, culture media were discarded from the assay plates, and all wells received 100 μl of compound screening medium. 100 μl of each of the previously prepared “2×-concentration” treatment media were dispensed into duplicate assay wells, thereby achieving the desired final treatment concentrations. The final concentration of DMSO in all assay wells was 0.1, 0.2 or 0.4%. Assay plates were incubated for 24 hr in a cell culture incubator (37° C./5% CO2/85% humidity).
(§5) Step 4: At the 24 h assay endpoint, treatment media were discarded and 100 µl/well of luciferase detection reagent was added. Relative luminometer units (RLUs) were quantified from each assay well.

TRβ = target: T2, TRβ (Homo sapiens, UniProt P10828); test: TR reporter-gene assay (Gal4 DBD hybrid, luciferase), TRβ; assay type: cell-based; details: for EC50: HEK293-derived reporter cells, 24 hr treatment, read-out: TRβ EC50; for T3-SI (selectivity index, EC50 (TRα)/EC50 (TRβ)): class symbols
T2 construct: expressed in transfected cells; host or cells: HEK293
T2 sequence (P10828 217-461 limits assumed): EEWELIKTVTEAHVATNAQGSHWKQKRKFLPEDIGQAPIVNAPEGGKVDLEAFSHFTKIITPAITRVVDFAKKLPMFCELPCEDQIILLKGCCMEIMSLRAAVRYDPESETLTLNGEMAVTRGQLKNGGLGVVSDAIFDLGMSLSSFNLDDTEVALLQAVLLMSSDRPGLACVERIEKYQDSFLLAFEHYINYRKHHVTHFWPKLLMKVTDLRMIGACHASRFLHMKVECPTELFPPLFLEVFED
Method: as §1, §2, §3, §4, §5

Row | SMILES | EC50 (TRα) [nM] | EC50 (TRβ) [nM] | T3-SI (selectivity index, EC50 (TRα)/EC50 (TRβ)) (TRβ)
1 | CC(C)c1cc(Cc2c(Cl)cc(CNCC(=O)O)c(F)c2Cl)ccc1O [Compound 152, (3,5-dichloro-2-fluoro-4-(4-hydroxy-3-isopropylbenzyl)benzyl)glycine] | 100 to 1000 | 100 to 1000 | ++ (3× < T3-SI ≤ 30×)
2 | Cc1c(F)c(CSCC(=O)O)cc(Cl)c1Cc1ccc(O)c(C(C)C)c1 [Compound 226, 2-((5-chloro-2-fluoro-4-(4-hydroxy-3-isopropylbenzyl)-3-methylbenzyl)thio)acetic acid] | 100 to 1000 | 100 to 1000 | ++ (3× < T3-SI ≤ 30×)
3 | CC(C)c1cc(Cc2c(Cl)cc(N(C)CC(=O)O)cc2Cl)ccc1O [Compound 148, N-(3,5-dichloro-4-(4-hydroxy-3-isopropylbenzyl)phenyl)-N-methylglycine] | > 1000 | > 1000 | + (T3-SI ≤ 3×)
4 | CC(C)c1cc(Cc2c(Cl)cc(OC(F)(F)C(=O)O)cc2Cl)ccc1O [Compound 82, 2-(3,5-dichloro-4-(4-hydroxy-3-isopropylbenzyl)phenoxy)-2,2-difluoroacetic acid] | > 1000 | 100 to 1000 | ++ (3× < T3-SI ≤ 30×)
5 | CC(C)c1cc(Cc2c(Cl)cc(C=C(C(=O)O)C(=O)O)cc2Cl)ccc1O [Compound 108, 2-(3,5-dichloro-4-(4-hydroxy-3-isopropylbenzyl)benzylidene)malonic acid] | 100 to 1000 | > 1000 | + (T3-SI ≤ 3×)
6 | CC(C)c1cc(Cc2c(Cl)cc(OCCCCC(=O)O)cc2Cl)ccc1O [Compound 26, 5-(3,5-dichloro-4-(4-hydroxy-3-isopropylbenzyl)phenoxy)pentanoic acid] | 100 to 1000 | 100 to 1000 | + (T3-SI ≤ 3×)
7 | Cc1cc(C[S+]([O-])CC(=O)O)cc(Cl)c1Cc1ccc(O)c(C(C)C)c1 (stereo not drawn) [Compound 246, 2-((3-chloro-4-(4-hydroxy-3-isopropylbenzyl)-5-methylbenzyl)sulfinyl)acetic acid] | > 1000 | > 1000 | ++ (3× < T3-SI ≤ 30×)
8 | Cc1cc(CC(=O)O)cc(C)c1Cc1ccc(O)c(C(C)c2ccc(F)cc2)c1 (stereo not drawn) [Compound 2, 2-(4-(3-(1-(4-fluorophenyl)ethyl)-4-hydroxybenzyl)-3,5-dimethylphenyl)acetic acid] | 100 to 1000 | 10 to 100 | ++ (3× < T3-SI ≤ 30×)
9 | Cc1cc(SCC(=O)O)c(F)c(Cl)c1Cc1ccc(O)c(C(C)C)c1 [Compound 225, 2-((3-chloro-2-fluoro-4-(4-hydroxy-3-isopropylbenzyl)-5-methylphenyl)thio)acetic acid] | 100 to 1000 | 100 to 1000 | ++ (3× < T3-SI ≤ 30×)
10 | CC(C)c1cc(Cc2c(Cl)cc(C[S+]([O-])CC(=O)O)cc2Cl)ccc1O (stereo not drawn) [Compound 210, 2-((3,5-dichloro-4-(4-hydroxy-3-isopropylbenzyl)benzyl)sulfinyl)acetic acid] | > 1000 | > 1000 | ++ (3× < T3-SI ≤ 30×)
11 | CC(C)c1cc(Cc2c(Cl)cc(OC(F)C(=O)O)cc2Cl)ccc1O (stereo not drawn) [Compound 81, 2-(3,5-dichloro-4-(4-hydroxy-3-isopropylbenzyl)phenoxy)-2-fluoroacetic acid] | 100 to 1000 | 100 to 1000 | ++ (3× < T3-SI ≤ 30×)

Results, then the compound that gave them:

Row | EC50 (TRα) [nM] | EC50 (TRβ) [nM] | T3-SI (selectivity index, EC50 (TRα)/EC50 (TRβ)) (TRβ) | SMILES
12 | > 1000 | > 1000 | ++ (3× < T3-SI ≤ 30×) | CC(C)c1c(O)ccc(Cc2c(Cl)cc(C(=O)O)cc2Cl)c1F [Compound 61, 3,5-dichloro-4-(2-fluoro-4-hydroxy-3-isopropylbenzyl)benzoic acid]
13 | 100 to 1000 | 100 to 1000 | ++ (3× < T3-SI ≤ 30×) | CC(C)c1cc(Cc2c(Cl)cc(CC(=O)O)cc2Cl)ccc1O [Compound 6, 2-(3,5-dichloro-4-(4-hydroxy-3-isopropylbenzyl)phenyl)acetic acid]
14 | 10 to 100 | < 10 | ++ (3× < T3-SI ≤ 30×) | CC(c1ccc(F)cc1)c1c(O)ccc(Cc2c(Cl)cc(NCC(=O)O)cc2Cl)c1F (stereo not drawn) [Compound 50, (3,5-dichloro-4-(2-fluoro-3-(1-(4-fluorophenyl)ethyl)-4-hydroxybenzyl)phenyl) glycine]
15 | < 10 | < 10 | ++ (3× < T3-SI ≤ 30×) | CC(C)c1c(O)ccc(Cc2c(Cl)cc(CSCC(=O)O)cc2Cl)c1F [Compound 200, 2-((3,5-dichloro-4-(2-fluoro-4-hydroxy-3-isopropylbenzyl)benzyl)thio)acetic acid]
16 | 100 to 1000 | 10 to 100 | ++ (3× < T3-SI ≤ 30×) | CC(Oc1cc(Cl)c(Cc2ccc(O)c(C(C)C)c2F)c(Cl)c1)C(=O)O (stereo not drawn) [Compound 58, 2-(3,5-dichloro-4-(2-fluoro-4-hydroxy-3-isopropylbenzyl)phenoxy)propanoic acid]
17 | < 10 | < 10 | ++ (3× < T3-SI ≤ 30×) | CC(C)c1c(O)ccc(Cc2c(Cl)cc(CCC(=O)O)cc2Cl)c1F [Compound 40, 3-(3,5-dichloro-4-(2-fluoro-4-hydroxy-3-isopropylbenzyl)phenyl)propanoic acid]
18 | 100 to 1000 | 100 to 1000 | + (T3-SI ≤ 3×) | CC(C)c1cc(Cc2c(Cl)cc(CNCC(=O)O)cc2Cl)ccc1O [Compound 30, (3,5-dichloro-4-(4-hydroxy-3-isopropylbenzyl)benzyl)glycine]
19 | 10 to 100 | < 10 | ++ (3× < T3-SI ≤ 30×) | CC(C)c1c(O)ccc(Cc2c(Cl)cc(NCC(=O)O)cc2Cl)c1F [Compound 46, (3,5-dichloro-4-(2-fluoro-4-hydroxy-3-isopropylbenzyl)phenyl)glycine]
20 | < 10 | < 10 | ++ (3× < T3-SI ≤ 30×) | C=C(Cc1cc(Cl)c(Cc2ccc(O)c(C(C)C)c2F)c(Cl)c1)C(=O)O [Compound 201, 2-(3,5-dichloro-4-(2-fluoro-4-hydroxy-3-isopropylbenzyl)benzyl)acrylic acid]
21 | 10 to 100 | < 10 | ++ (3× < T3-SI ≤ 30×) | CC(c1ccc(F)cc1)c1c(O)ccc(Cc2c(Cl)cc(CC(=O)O)cc2Cl)c1F (stereo not drawn) [Compound 37, 2-(3,5-dichloro-4-(2-fluoro-3-(1-(4-fluorophenyl)ethyl)-4-hydroxybenzyl)phenyl)acetic acid]
22 | 10 to 100 | < 10 | ++ (3× < T3-SI ≤ 30×) | CC(C)c1c(O)ccc(Cc2c(Cl)cc(CC(=O)O)c(F)c2Cl)c1F [Compound 69, 2-(3,5-dichloro-2-fluoro-4-(2-fluoro-4-hydroxy-3-isopropylbenzyl)phenyl)acetic acid]
23 | 10 to 100 | 10 to 100 | ++ (3× < T3-SI ≤ 30×) | CC(C)c1cc(Cc2c(Cl)cc(COCC(=O)O)cc2Cl)ccc1O [Compound 28, 2-((3,5-dichloro-4-(4-hydroxy-3-isopropylbenzyl)benzyl)oxy)acetic acid]
